US20230265151A1, “GIP/GLP1 CO-AGONIST COMPOUNDS” (priority 2020, published 2023)
Where two headings read alike, the source gives them in different places.

Legend:
Format in all cases: cell-based
hGCGR = target: T1, hGCGR (Homo sapiens, UniProt P47871); experiment: Functional cAMP formation (HTRF) in HEK-293 clonal cells expressing hGCGR, 0.1% bovine casein, without or with 1.0% human serum albumin
T1 construct: expressed in transfected cells
Method in brief: (§1)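 Cells were stimulated with peptide for 30 min at 37° C, then lysed in buffer carrying cAMP-d2 and anti-cAMP Eu3+-cryptate for a competitive HTRF read after at least 60 min at room temperature. The 665/620 nm ratio was converted to nM cAMP against a standard curve.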

hGIPR = target: T2, hGIPR (Homo sapiens, UniProt P48546); experiment: Functional cAMP formation (HTRF) in HEK-293 clonal cells expressing hGIPR, 0.1% bovine casein, without or with 1.0% human serum albumin
T2 construct: expressed in transfected cells
T2 sequence (P48546 22-466): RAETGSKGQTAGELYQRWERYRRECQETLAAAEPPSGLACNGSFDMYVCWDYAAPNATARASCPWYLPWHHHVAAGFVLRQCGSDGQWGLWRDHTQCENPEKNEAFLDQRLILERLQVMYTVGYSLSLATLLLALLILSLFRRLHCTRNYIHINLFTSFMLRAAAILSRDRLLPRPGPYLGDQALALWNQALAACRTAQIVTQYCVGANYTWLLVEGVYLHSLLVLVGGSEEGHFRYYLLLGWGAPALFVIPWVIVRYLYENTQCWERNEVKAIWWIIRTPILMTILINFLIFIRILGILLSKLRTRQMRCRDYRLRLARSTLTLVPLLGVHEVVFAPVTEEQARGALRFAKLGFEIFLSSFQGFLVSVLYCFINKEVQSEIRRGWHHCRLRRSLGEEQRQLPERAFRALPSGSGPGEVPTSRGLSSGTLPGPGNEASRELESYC
Method in brief: as §1

hGLP-1R = hGLP-1R (Homo sapiens, UniProt P43220); experiment: Functional cAMP formation (HTRF) in HEK-293 clonal cells expressing hGLP-1R, 0.1% bovine casein, without or with 1.0% human serum albumin; design: expressed in transfected cells; conditions: for Emax: percent of maximal response to GLP-1(7-36)NH2, arithmetic mean; for EC50: geometric mean
Method in brief: as §1

[1] = cAMP, 37° C., 0.1% bovine casein (no human serum albumin), geometric mean, read-out: hGCGR EC50, nM (SEM, n)
[2] = cAMP, 37° C., 0.1% bovine casein and 1.0% human serum albumin, geometric mean (SEM, n), read-out: hGCGR EC50, nM (SEM, n)
[3] = HEK293, cAMP, 37° C., 0.1% bovine casein and 1.0% human serum albumin, percent of maximal response to GIP(1-42)NH2, read-out: hGIPR Emax, % ± SEM
[4] = HEK293, cAMP, 37° C., 0.1% bovine casein, percent of maximal response to GIP(1-42)NH2, arithmetic mean, read-out: hGIPR Emax, % ± SEM
[5] = cAMP, 37° C., 0.1% bovine casein (no human serum albumin), geometric mean, read-out: hGIPR EC50, nM (SEM, n)
[6] = cAMP, 37° C., 0.1% bovine casein (no human serum albumin), read-out: hGLP-1R EC50, nM (SEM, n)

T1 sequence (P47871 26-477): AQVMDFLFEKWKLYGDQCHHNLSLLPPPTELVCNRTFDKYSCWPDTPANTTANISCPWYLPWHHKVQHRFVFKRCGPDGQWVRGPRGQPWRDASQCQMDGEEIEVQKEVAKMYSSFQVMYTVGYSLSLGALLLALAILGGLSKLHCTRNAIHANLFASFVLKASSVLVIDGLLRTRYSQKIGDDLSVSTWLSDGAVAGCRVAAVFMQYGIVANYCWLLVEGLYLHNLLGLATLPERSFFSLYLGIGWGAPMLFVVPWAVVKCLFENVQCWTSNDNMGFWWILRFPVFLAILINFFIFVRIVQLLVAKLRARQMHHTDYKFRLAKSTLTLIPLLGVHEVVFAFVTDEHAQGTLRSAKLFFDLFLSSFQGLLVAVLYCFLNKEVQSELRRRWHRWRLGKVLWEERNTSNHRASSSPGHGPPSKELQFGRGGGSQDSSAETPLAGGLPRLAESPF
Chain of hGLP-1R (P43220 24-463): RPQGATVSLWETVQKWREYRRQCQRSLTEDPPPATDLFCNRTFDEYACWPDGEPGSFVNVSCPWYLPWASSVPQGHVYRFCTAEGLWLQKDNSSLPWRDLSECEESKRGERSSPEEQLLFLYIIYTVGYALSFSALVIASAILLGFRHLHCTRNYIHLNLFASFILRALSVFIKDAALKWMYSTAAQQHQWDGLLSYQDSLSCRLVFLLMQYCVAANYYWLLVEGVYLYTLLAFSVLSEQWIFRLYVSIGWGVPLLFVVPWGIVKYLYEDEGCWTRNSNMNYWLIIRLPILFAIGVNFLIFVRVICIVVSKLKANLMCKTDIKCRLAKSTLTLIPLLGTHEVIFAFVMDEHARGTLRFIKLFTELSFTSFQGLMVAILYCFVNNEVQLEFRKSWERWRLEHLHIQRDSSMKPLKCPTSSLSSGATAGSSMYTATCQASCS

## CC[C@H](C)[C@H](NC(=O)[C@H](CC(C)C)NC(=O)[C@](C)(Cc1ccc(O)cc1)NC(=O)[C@@H](CCC(=O)O)NC(=O)[C@@H](NC(=O)[C@H](Cc1ccccc1)NC(=O)[C@H](CCCCNC(=O)COCCOCCNC(=O)COCCOCCNC(=O)CCCCCCCCCCCCC(=O)O)NC(=O)C(C)(C)NC(=O)[C@H](CCC(N)=O)NC(=O)[C@H](C)NC(=O)[C@H](CCCCNC(=O)COCCOCCNC(=O)COCCOCCNC(=O)CCCCCCCCCCCCC(=O)O)NC(=O)[C@H](CCCN)NC(=O)[C@H](CC(=O)O)NC(=O)[C@H](CC(C)C)NC(=O)[C@](C)(CC(C)C)NC(=O)[C@@H](NC(=O)C(C)(C)NC(=O)[C@H](Cc1ccncc1)NC(=O)[C@H](CC(=O)O)NC(=O)[C@H](CO)NC(=O)[C@@H](NC(=O)[C@](C)(Cc1ccccc1F)NC(=O)[C@@H](NC(=O)CNC(=O)[C@H](CCC(=O)O)NC(=O)C(C)(C)NC(=O)[C@@H](N)Cc1ccc(O)cc1)[C@@H](C)O)[C@@H](C)O)[C@@H](C)CC)[C@@H](C)CC)C(=O)N[C@@H](CCC(=O)O)C(=O)NCC(=O)NCC(=O)N1CCC[C@H]1C(=O)N[C@@H](CO)C(=O)N[C@@H](CO)C(=O)NCC(=O)N[C@@H](C)C(=O)N1CCC[C@H]1C(=O)N1CCC[C@H]1C(=O)N1CCC[C@H]1C(=O)N[C@@H](CO)C(N)=O [Example 384]
hGCGR; [1]
  EC50: > 9950 nM
hGCGR; [2]
  EC50: > 9950 nM
hGIPR; [3]
  Emax: 83.5%
hGIPR; [4]
  Emax: 94.5%
hGIPR; [5]
  EC50: 0.0124 nM
hGLP-1R; HEK293, cAMP, 37° C., 0.1% bovine casein, read-out: hGLP-1R Emax, % ± SEM
  Emax: 98.2%
hGLP-1R; [6]
  EC50: 0.308 nM

## CC[C@H](C)[C@H](NC(=O)[C@H](CC(C)C)NC(=O)[C@](C)(Cc1ccc(O)cc1)NC(=O)[C@@H](CCC(=O)O)NC(=O)[C@@H](NC(=O)[C@H](Cc1ccccc1)NC(=O)[C@H](CCC(=O)O)NC(=O)C(C)(C)NC(=O)[C@H](CCC(N)=O)NC(=O)[C@H](C)NC(=O)[C@H](CCCCNC(=O)COCCOCCNC(=O)CC[C@H](NC(=O)CCCc1ccc(C(C)(C)C)cc1)C(=O)O)NC(=O)[C@H](CCCN)NC(=O)[C@H](CC(=O)O)NC(=O)[C@H](CC(C)C)NC(=O)[C@](C)(CC(C)C)NC(=O)[C@@H](NC(=O)[C@H](CO)NC(=O)[C@H](Cc1ccncc1)NC(=O)[C@H](CC(=O)O)NC(=O)[C@H](CO)NC(=O)[C@@H](NC(=O)[C@](C)(Cc1ccccc1F)NC(=O)[C@@H](NC(=O)CNC(=O)[C@H](CCC(=O)O)NC(=O)C(C)(C)NC(=O)[C@@H](N)Cc1ccc(O)cc1)[C@@H](C)O)[C@@H](C)O)[C@@H](C)CC)[C@@H](C)CC)C(=O)N[C@@H](CCCCNC(=O)COCCOCCNC(=O)CC[C@H](NC(=O)CCCc1ccc(C(C)(C)C)cc1)C(=O)O)C(=O)NCC(=O)NCC(=O)N1CCC[C@H]1C(=O)N[C@@H](CO)C(=O)N[C@@H](CO)C(=O)NCC(=O)N[C@@H](C)C(=O)N1CCC[C@H]1C(=O)N1CCC[C@H]1C(=O)N1CCC[C@H]1C(=O)N[C@@H](CO)C(N)=O [Example 208]
hGCGR; 0.1% bovine casein and 1.0% human serum albumin, 37° C., geometric mean, read-out: hGCGR EC50, nM (SEM, n)
  EC50: > 9950 nM
hGCGR; cAMP, incubated at 37° C., 0.1% bovine casein (no human serum albumin), geometric mean, read-out: hGCGR EC50, nM (SEM, n)
  EC50: > 9950 nM
hGIPR; 0.1% bovine casein and 1.0% human serum albumin, 37° C., geometric mean, read-out: hGIPR EC50, nM (SEM, n)
  EC50: 0.126 nM
hGIPR; HEK293, 0.1% bovine casein and 1.0% human serum albumin, 37° C., percent of maximal response to GIP(1-42)NH2, read-out: hGIPR Emax, % ± SEM
  Emax: 64.1%
hGIPR; HEK293, percent of maximal response to GIP(1-42)NH2, 37° C., 0.1% bovine casein, arithmetic mean, read-out: hGIPR Emax, % ± SEM
  Emax: 94.9%
hGIPR; cAMP, incubated at 37° C., 0.1% bovine casein (no human serum albumin), geometric mean, read-out: hGIPR EC50, nM (SEM, n)
  EC50: 0.018 nM
hGLP-1R; 0.1% bovine casein and 1.0% human serum albumin, 37° C., read-out: hGLP-1R EC50, nM (SEM, n)
  EC50: 1.58 nM

## CC[C@H](C)[C@H](NC(=O)[C@H](CC(C)C)NC(=O)[C@](C)(Cc1ccc(O)cc1)NC(=O)[C@H](CCCCNC(=O)COCCOCCNC(=O)CCCCCCCNC(=O)CC[C@H](NC(=O)CCCCCCCCCOc1ccc(C(=O)O)cc1)C(=O)O)NC(=O)[C@@H](NC(=O)[C@H](Cc1ccccc1)NC(=O)[C@H](CCCN)NC(=O)C(C)(C)NC(=O)[C@H](CCC(N)=O)NC(=O)[C@H](C)NC(=O)[C@H](CCC(N)=O)NC(=O)[C@H](CCCN)NC(=O)[C@H](CC(=O)O)NC(=O)[C@H](CC(C)C)NC(=O)[C@](C)(CC(C)C)NC(=O)[C@@H](NC(=O)C(C)(C)NC(=O)[C@H](Cc1ccncc1)NC(=O)[C@H](CC(=O)O)NC(=O)[C@H](CO)NC(=O)[C@@H](NC(=O)[C@](C)(Cc1ccccc1F)NC(=O)[C@@H](NC(=O)CNC(=O)[C@H](CCC(=O)O)NC(=O)C(C)(C)NC(=O)[C@@H](N)Cc1ccc(O)cc1)[C@@H](C)O)[C@@H](C)O)[C@@H](C)CC)[C@@H](C)CC)C(=O)N[C@@H](CCCCNC(=O)COCCOCCNC(=O)CCCCCCCNC(=O)CC[C@H](NC(=O)CCCCCCCCCOc1ccc(C(=O)O)cc1)C(=O)O)C(=O)NCC(=O)NCC(=O)N1CCC[C@H]1C(=O)N[C@@H](CO)C(=O)N[C@@H](CO)C(=O)NCC(=O)N[C@@H](C)C(=O)N1CCC[C@H]1C(=O)N1CCC[C@H]1C(=O)N1CCC[C@H]1C(=O)N[C@@H](CO)C(N)=O [Example 454]
hGCGR; hGCGR EC50, nM (SEM, n), cAMP, 37° C., 0.1% bovine casein (no human serum albumin), geometric mean
  EC50: > 9950 nM
hGCGR; hGCGR EC50, nM (SEM, n), cAMP, 37° C., 0.1% bovine casein and 1.0% human serum albumin, geometric mean (SEM, n)
  EC50: > 9950 nM
hGIPR; HEK293, read-out: hGIPR Emax, % ± SEM, cAMP, 37° C., 0.1% bovine casein and 1.0% human serum albumin, percent of maximal response to GIP(1-42)NH2
  Emax: 91.5%
hGIPR; hGIPR EC50, nM (SEM, n), cAMP, 37° C., 0.1% bovine casein (no human serum albumin), geometric mean
  EC50: 0.0202 nM
hGLP-1R; HEK293, read-out: hGLP-1R Emax, % ± SEM, cAMP, 37° C., 0.1% bovine casein
  Emax: 114%
hGLP-1R; hGLP-1R EC50, nM (SEM, n), cAMP, 37° C., 0.1% bovine casein (no human serum albumin)
  EC50: 0.266 nM

## CC[C@H](C)[C@H](NC(=O)[C@H](CC(C)C)NC(=O)[C@](C)(Cc1ccc(O)cc1)NC(=O)[C@@H](CCC(=O)O)NC(=O)[C@@H](NC(=O)[C@H](Cc1ccccc1)NC(=O)[C@H](CCCCNC(=O)COCCOCCNC(=O)CC[C@H](NC(=O)CCCCCCCCCCCCC(=O)O)C(=O)O)NC(=O)C(C)(C)NC(=O)[C@H](CCC(N)=O)NC(=O)[C@H](C)NC(=O)[C@H](CCCCNC(=O)COCCOCCNC(=O)CC[C@H](NC(=O)CCCCCCCCCCCCC(=O)O)C(=O)O)NC(=O)[C@H](CCCN)NC(=O)[C@H](CC(=O)O)NC(=O)[C@H](CC(C)C)NC(=O)[C@](C)(CC(C)C)NC(=O)[C@@H](NC(=O)C(C)(C)NC(=O)[C@H](Cc1ccncc1)NC(=O)[C@H](CC(=O)O)NC(=O)[C@H](CO)NC(=O)[C@@H](NC(=O)[C@](C)(Cc1ccccc1F)NC(=O)[C@@H](NC(=O)CNC(=O)[C@H](CCC(=O)O)NC(=O)C(C)(C)NC(=O)[C@@H](N)Cc1ccc(O)cc1)[C@@H](C)O)[C@@H](C)O)[C@@H](C)CC)[C@@H](C)CC)C(=O)N[C@@H](CCC(=O)O)C(=O)NCC(=O)NCC(=O)N1CCC[C@H]1C(=O)N[C@@H](CO)C(=O)N[C@@H](CO)C(=O)NCC(=O)N[C@@H](C)C(=O)N1CCC[C@H]1C(=O)N1CCC[C@H]1C(=O)N1CCC[C@H]1C(=O)N[C@@H](CO)C(N)=O [Example 336]
hGCGR; [1]
  EC50: > 10100 nM
hGCGR; [2]
  EC50: > 10100 nM
hGIPR; [3]
  Emax: 94.6%
hGIPR; [4]
  Emax: 109%
hGIPR; [5]
  EC50: 0.0136 nM
hGIPR; cAMP, 37° C., 0.1% bovine casein and 1.0% human serum albumin, geometric mean (SEM, n), read-out: hGIPR EC50, nM (SEM, n)
  EC50: 2.92 nM
hGLP-1R; [6]
  EC50: 0.338 nM
